In US8653092B2, “Tetrahydro-pyrido-pyrimidine derivatives” (Novartis AG, priority 2010, dated 2014) one finds IC50 and Plaques/spleen data, which are given here for 5 molecules.

Where two headings read alike, the source gives them in different places.

For one experiment, the system named is murine B cells. Kind of experiment: Murine B cell activation: CD86 upregulation after anti-IgM stimulation. The settings on record: Balb/c mouse splenocytes, anti-IgM 24 h, CD86 on CD19+ B cells, read-out: mCD86/IC50 CD86 [nmol l − 1]. The experiment is classed as cell-based, mouse. The protocol: Spleens from Balb/c mice were collected, splenocytes were isolated and washed twice with RPMI containing 10% foetal bovine serum (FBS), 10 mM HEPES, 100 Units/mL penicilline/streptomycine. RPMI supplemented in this way is subsequently referred to as medium. The cells were adjusted to 2.5×10^6 cells/mL in medium and 200 μl cell suspension (5×10^6 cells) were added to the appropriate wells of 96 well plates.
Then the cells were stimulated by adding 50 μl anti-IgM mAb in medium (final concentration: 30 μg/mL). After incubation for 24 hours at 37° C., the cells were stained with the following antibody cocktails: anti-mouse CD86-FITC, anti-mouse CD69-PerCP-Cy5.5, anti-mouse CD19-PerCP for the assessment of B cells, and anti-mouse CD3-FITC, anti-mouse CD69-PE for the assessment of T cells (2 μl of each antibody/well). After one hour at room temperature (RT) in the dark the cells were transferred to 96 Deepwell plates. The cells were washed once with 1 mL PBS containing 2% FBS and after re-suspension in 200 μl the samples were analyzed on a FACS Calibur flow cytometer. Lymphocytes were gated in the FSC/SSC dot plot according to size and granularity and further analyzed for expression of CD19, CD3 and activation markers (CD86, CD69). Data were calculated from dot blots as percentage of cells positively stained for activation markers within the CD19+ or CD3+ population using BD CellQest Software.
For assessing the inhibitory property of compounds, compounds were first dissolved and diluted in DMSO followed by a 1:50 dilution in medium. Splenocytes from Balb/c mice were isolated, re-suspended and transfered to 96 well plates as described above (200 μl/well). The diluted compounds or solvent were added to the plates (25 μl) and incubated at 37° C. for 1 hour. Then the cultures were stimulated with 25 μl anti-IgM mAb/well (final concentration […]) for 24 hours at 37° C. and stained with anti-mouse CD86-FITC and anti-mouse CD19-PerCP (2 μl of each antibody/well). CD86 expression on CD19 positive B cells was quantified by flow cytometry as described above.

The target in experiment [1] is human phosphoinositide-3 kinase (PI3K) delta (Homo sapiens (Human), UniProt O00329). Kind of experiment: PI3K-mediated Akt 1/2 (S473) phosphorylation in Rat-1 cells (AlphaScreen SureFire). It counts as cell-based. The settings on record: Rat-1 cells overexpressing myristoylated human PI3K delta, p-Akt (Ser473); read-out: Cell PI3Kδ/ IC50 [umol l − 1]. The protocol: Rat-1 cells stably overexpressing a myristoylated form of the catalytic subunit of human phosphoinositide-3 kinase (PI3K) alpha, beta or delta were plated in 384-well plates at a density of 7500 (PI3K alpha), 6200 (PI3K beta), or 4000 (PI3K delta) cells in 30 ul complete growth medium (Dulbecco's modified Eagle's medium (DMEM high glucose) supplemented with 10% (v/v) fetal bovine serum, 1% (v/v) MEM non essential amino acids, 10 mM HEPES, 2 mM L-glutamine, 10 μg/mL puromycin and 1% (v/v) Penicillin/Streptomycin) and were incubated at […]/5% CO2/95% humidity for 24 h. Compounds were diluted in 384-well compound plates to obtain 8-point serial dilutions for 40 test compounds in 90% DMSO, as well as 4 reference compounds plus 16 high controls and 16 low (inhibited) controls. Predilution plates were prepared by dispensing pipetting 250 nl of compound solutions into 384-well polypropylen plates using a Hummingwell nanoliter dispensor. Compounds were prediluted by the addition of 49.75 ul complete growth medium. 10 ul of prediluted compound solution were transferred to the cell plate using a 384-well pipettor, resulting in a final DMSO concentration of 0.11%. Cells were incubated for 1 h at […]/5% CO2/95% humidity. The supernatant was removed, the cells were lysed in 20 ul of lysis buffer for AlphaScreen® SureFire® detection.
For detection of p-AKT (Ser473), the SureFire® p-Akt 1/2 (Ser473) Assay Kit (PerkinElmer, U.S.A) was used. 5 ul of cell lysate was transferred to 384-well low volume Proxiplates for detection using a 384-well pipettor. Addition of AlphaScreen® SureFire® reagents was done according to the manufacturer's protocol. First, 5 ul of reaction buffer plus activation buffer mix containing AlphaScreen® acceptor beads was added, the plate was sealed, and incubated on a plate shaker for 2 hours at room temperature. Second, 2 ul of dilution buffer containing AlphaScreen® donor beads was added, and the plate was incubated on plate shaker as above for a further 2 hours. The plate was read on an AlphaScreen® compatible plate reader, using standard AlphaScreen® settings.

The test system of experiment [2] is antibody production to sheep red blood cells (SRBC). Kind of experiment: Antibody production to sheep red blood cells (SRBC), plaque forming assay. The settings on record: OFA rats, 10 mg/kg bid orally d0-d3, spleens on d4. It counts as in vivo, rat. The protocol: In brief, OFA rats were injected i.v. with sheep erythrocytes on d0 and treated orally on four consecutive days (d0 to d3) with the compounds under investigation. Spleen cell suspensions were prepared on d4 and lymphocytes were plated onto soft agar in presence of indicator cells (SRBC) and complement. Lysis of the indicator cells due to secretion of SRBC-specific antibody (predominantly of the IgM subclass) and presence of complement yielded plaques. The number of plaques per plate were counted and expressed as number of plaques per spleen.
Immunization: Groups of five female OFA rats were immunized on day 0 with 2×10^8/ml SRBC (obtained from Laboratory Animal Services LAS, Novartis Pharma AG) in a volume of 0.5 ml per rat by i.v. injection. […]
On day 4, animals were euthanized with CO2 Spleens were removed, weighed, and deposited in plastic tubes containing 10 ml of cold (4° C.) Hank's balanced salt solution (HBSS; Gibco, pH 7.3, containing 1 mg Phenolred/100 ml) for each rat spleen. […] Lymphocyte numbers per spleen were determined by automated cell counter and spleen cell suspensions were adjusted to a cell concentration of 30×10^6/ml. […]
In addition, one ml of 0.7% agarose was prepared in plastic tubes and kept at 48° C. in a water bath. […] Plaques were counted with a microscope. […]

A further experiment has as its target PI3K alpha (Homo sapiens (Human), UniProt P42336). Kind of experiment: Enzymatic PI3K alpha isoform inhibition (lipid kinase, Kinase-Glo luminescence). It counts as biochemical. For orientation: Kinase-Glo measures the ATP left after a reaction by luminescence.
For the next experiment, the target named is PI3K delta (Homo sapiens (Human), UniProt O00329). As to the kind of experiment: Enzymatic PI3K delta isoform inhibition (lipid kinase, Kinase-Glo luminescence). It counts as biochemical. Conditions: enzymatic assay.
Sequence of PI3K delta (O00329 other isoform, or with tags, fused parts or gaps linker GGGGGG): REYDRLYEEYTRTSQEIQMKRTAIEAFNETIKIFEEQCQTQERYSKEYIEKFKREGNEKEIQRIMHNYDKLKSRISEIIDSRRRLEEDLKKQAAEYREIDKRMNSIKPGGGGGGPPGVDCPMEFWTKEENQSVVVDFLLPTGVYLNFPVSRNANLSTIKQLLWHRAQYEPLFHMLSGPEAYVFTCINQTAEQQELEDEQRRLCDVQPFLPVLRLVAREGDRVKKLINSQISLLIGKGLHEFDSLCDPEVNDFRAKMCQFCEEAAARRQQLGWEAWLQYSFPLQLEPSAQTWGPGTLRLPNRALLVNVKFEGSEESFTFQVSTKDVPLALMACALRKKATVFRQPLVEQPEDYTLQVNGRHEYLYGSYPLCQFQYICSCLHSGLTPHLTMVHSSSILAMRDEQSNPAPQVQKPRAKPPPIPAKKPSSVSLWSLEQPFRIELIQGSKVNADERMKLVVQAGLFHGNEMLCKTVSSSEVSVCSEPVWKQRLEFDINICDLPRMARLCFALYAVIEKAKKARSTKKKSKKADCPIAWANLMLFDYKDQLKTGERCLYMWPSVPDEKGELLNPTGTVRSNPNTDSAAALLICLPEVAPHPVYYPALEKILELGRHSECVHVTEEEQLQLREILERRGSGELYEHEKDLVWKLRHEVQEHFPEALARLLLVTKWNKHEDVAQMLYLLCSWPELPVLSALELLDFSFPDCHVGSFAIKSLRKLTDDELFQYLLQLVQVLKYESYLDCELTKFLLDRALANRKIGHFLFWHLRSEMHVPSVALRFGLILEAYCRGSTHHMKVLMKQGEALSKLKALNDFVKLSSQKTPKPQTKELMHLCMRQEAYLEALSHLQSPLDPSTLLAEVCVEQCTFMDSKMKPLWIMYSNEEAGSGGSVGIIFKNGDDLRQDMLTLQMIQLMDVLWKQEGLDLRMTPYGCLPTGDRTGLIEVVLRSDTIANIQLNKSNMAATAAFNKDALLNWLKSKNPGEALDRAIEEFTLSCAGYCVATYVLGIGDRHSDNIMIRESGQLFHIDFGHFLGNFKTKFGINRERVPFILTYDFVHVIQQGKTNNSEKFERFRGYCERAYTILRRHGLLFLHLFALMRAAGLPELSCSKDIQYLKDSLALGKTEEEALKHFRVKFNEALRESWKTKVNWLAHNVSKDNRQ

Sequence of human phosphoinositide-3 kinase (PI3K) delta (O00329 whole entry): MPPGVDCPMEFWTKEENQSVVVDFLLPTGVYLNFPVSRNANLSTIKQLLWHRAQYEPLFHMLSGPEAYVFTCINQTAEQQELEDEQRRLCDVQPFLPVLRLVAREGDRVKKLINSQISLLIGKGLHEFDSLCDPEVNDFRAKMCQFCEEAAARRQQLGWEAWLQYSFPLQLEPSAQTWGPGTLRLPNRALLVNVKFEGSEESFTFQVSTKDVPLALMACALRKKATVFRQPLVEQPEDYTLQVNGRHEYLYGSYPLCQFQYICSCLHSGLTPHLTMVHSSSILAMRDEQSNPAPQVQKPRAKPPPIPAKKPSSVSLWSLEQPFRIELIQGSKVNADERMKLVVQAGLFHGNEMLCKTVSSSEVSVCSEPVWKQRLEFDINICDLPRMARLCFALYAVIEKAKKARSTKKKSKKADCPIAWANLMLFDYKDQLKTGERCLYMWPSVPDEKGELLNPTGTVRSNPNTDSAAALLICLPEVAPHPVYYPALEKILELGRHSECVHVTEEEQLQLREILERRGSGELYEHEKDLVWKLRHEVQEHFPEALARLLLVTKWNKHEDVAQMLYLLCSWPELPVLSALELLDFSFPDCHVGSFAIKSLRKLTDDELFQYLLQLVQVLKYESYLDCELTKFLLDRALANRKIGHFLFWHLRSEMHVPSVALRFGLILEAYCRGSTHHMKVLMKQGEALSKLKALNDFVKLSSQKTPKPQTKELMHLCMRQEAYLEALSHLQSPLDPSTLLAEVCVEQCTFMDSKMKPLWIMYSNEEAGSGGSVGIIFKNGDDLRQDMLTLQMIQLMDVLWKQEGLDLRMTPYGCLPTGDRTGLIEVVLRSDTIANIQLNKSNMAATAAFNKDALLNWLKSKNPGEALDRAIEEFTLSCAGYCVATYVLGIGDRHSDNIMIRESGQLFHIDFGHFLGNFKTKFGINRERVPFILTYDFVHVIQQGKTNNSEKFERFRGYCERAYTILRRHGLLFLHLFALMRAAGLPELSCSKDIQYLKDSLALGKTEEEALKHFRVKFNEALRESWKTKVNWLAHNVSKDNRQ
Sequence of human phosphoinositide-3 kinase (PI3K) delta (Q63787 whole entry partner): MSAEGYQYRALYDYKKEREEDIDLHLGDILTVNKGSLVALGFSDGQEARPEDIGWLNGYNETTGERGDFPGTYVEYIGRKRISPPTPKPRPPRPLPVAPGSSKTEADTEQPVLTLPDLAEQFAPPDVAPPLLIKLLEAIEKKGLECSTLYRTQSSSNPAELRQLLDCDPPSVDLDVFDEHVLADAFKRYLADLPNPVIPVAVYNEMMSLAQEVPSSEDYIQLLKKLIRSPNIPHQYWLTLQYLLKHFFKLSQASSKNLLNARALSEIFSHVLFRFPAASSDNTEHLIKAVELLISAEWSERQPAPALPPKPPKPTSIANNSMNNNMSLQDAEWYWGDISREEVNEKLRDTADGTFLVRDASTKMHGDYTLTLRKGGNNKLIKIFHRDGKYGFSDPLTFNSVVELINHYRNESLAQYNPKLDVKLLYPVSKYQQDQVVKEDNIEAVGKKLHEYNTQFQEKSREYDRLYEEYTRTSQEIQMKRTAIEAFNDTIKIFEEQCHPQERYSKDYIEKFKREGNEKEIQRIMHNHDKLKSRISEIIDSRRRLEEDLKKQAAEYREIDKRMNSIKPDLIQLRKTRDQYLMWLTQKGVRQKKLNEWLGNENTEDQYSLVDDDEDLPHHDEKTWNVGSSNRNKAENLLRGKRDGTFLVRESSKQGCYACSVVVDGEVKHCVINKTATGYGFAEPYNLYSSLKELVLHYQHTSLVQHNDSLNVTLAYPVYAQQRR
Sequence of PI3K alpha (P42336 other isoform, or with tags, fused parts or gaps): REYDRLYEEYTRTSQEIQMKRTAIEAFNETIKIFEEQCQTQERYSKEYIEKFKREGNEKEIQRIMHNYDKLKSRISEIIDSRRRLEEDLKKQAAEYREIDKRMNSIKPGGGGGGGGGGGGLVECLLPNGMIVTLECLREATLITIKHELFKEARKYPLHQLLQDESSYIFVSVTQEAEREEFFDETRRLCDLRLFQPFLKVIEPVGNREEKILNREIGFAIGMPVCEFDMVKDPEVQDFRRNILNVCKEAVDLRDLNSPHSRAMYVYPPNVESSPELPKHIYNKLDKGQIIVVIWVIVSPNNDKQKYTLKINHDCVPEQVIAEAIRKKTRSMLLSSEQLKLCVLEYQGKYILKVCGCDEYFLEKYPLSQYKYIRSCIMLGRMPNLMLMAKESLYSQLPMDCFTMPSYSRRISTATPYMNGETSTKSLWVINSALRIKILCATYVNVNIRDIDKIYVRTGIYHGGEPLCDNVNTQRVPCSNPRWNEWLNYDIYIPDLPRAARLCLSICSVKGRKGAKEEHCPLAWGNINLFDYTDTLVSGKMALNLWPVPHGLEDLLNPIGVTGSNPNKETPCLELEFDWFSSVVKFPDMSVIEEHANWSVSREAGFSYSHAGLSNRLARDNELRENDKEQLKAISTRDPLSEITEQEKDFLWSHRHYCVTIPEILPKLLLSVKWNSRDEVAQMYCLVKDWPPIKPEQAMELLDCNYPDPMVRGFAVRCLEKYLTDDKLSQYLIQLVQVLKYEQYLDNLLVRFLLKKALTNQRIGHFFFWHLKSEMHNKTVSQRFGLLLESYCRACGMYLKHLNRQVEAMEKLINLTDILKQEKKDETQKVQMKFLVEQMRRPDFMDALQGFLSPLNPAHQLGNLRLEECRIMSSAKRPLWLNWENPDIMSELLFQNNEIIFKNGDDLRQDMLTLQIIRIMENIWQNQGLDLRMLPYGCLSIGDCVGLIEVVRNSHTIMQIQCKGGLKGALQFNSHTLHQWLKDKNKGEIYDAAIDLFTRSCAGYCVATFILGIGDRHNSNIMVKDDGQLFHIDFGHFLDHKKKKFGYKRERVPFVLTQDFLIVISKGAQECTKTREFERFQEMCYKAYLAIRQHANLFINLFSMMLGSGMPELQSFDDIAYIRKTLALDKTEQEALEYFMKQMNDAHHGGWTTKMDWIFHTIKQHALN

In the case of `COc1ncc(N2CCc3ncnc(O[C@H]4CCN(C(=O)C5CCOCC5)C4)c3C2)cc1C` [Example 1, {(S)-3-[6-(6-Methoxy-5-methyl-pyridin-3-yl)-5,6,7,8-tetrahydro-pyrido[4,3-d]pyrimidin-4-yloxy]-pyrrolidin-1-yl}-(tetrahydro-pyran-4-yl)-methanone], the figures for the IC50 (with murine B cells; in experiment [1]) were 94.9 nM and 153 nM, respectively. The Plaques/spleen in experiment [2] was determined as 12608 ± 4986.
For the molecule `COc1ncc(N2CCc3ncnc(N[C@H]4CCN(C(=O)C5CCOCC5)C4)c3C2)cc1C(F)(F)F` [Example 68, {(S)-3-[6-(6-Methoxy-5-trifluoromethyl-pyridin-3-yl)-5,6,7,8-tetrahydro-pyrido[4,3-d]pyrimidin-4-ylamino]-pyrrolidin-1-yl}-(tetrahydro-pyran-4-yl)-methanone], the IC50 at PI3K alpha (enzymatic assay) amounted to 43 nM; against PI3K delta it was 7 nM; with murine B cells it was 14.9 nM; in experiment [1], 53 nM.
Consider `COc1ncc(N2CCc3ncnc(N[C@H]4CCN(C(=O)C5CCOC(C)(C)C5)C4)c3C2)cc1C(F)(F)F` (stereo partly drawn) [Example 71, (2,2-Dimethyl-tetrahydro-pyran-4-yl)-{(S)-3-[6-(6-methoxy-5-trifluoromethyl-pyridin-3-yl)-5,6,7,8-tetrahydro-pyrido[4,3-d]pyrimidin-4-ylamino]-pyrrolidin-1-yl}-methanone], for which the IC50 against PI3K alpha is 57 nM; against PI3K delta, 3 nM; with murine B cells it was 24.7 nM; in experiment [1], 35 nM.
For `CCC(=O)N1CC[C@H](Nc2ncnc3c2CN(c2cnc(OC)c(C)c2)CC3)C1` [Example 81, 1-{(S)-3-[6-(6-Methoxy-5-methyl-pyridin-3-yl)-5,6,7,8-tetrahydro-pyrido[4,3-d]pyrimidin-4-ylamino]-pyrrolidin-1-yl}-propan-1-one], the IC50 stood at 651 nM on PI3K alpha (enzymatic assay), 20 nM on PI3K delta, 86.5 nM in the experiment on murine B cells and 246 nM in experiment [1].
In the same order, the values of `COc1ncc(N2CCc3ncnc(N[C@H]4CCN(C(=O)C5CCOCC5)C4)c3C2)cc1Cl` [Example 82, {(S)-3-[6-(5-Chloro-6-methoxy-pyridin-3-yl)-5,6,7,8-tetrahydro-pyrido[4,3-d]pyrimidin-4-ylamino]-pyrrolidin-1-yl}-(tetrahydro-pyran-4-yl)-methanone] are 66 nM, 3 nM, 46.2 nM and 116 nM.
